In publication PMC5118871 (Molecular microbiology, 2016):

T1: LmOpuCA tandem CBS domains (residues 247–371) (Listeria monocytogenes, UniProt Q9KHT9)
T1 sequence (Q9KHT9 247-371): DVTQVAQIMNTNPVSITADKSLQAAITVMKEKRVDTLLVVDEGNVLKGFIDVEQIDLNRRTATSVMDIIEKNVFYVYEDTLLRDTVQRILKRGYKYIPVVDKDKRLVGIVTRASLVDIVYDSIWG


Columns and labels:
[1] = target: T1, LmOpuCA tandem CBS domains (residues 247–371); assay: X-ray crystal structure, […] Å, crystal soaked with c-di-AMP; type: binding; conditions: one c-di-AMP per dimer, at the dimer interface; pH 9.0
crystal structure = target: the molecule itself; assay: crystal structure

| Molecule | X-ray crystal structure, 2.9 Å, crystal soaked with c-di-AMP [1] | stoichiometry N (crystal structure) |
| --- | --- | --- |
| Nc1ncnc2c1ncn2[C@@H]1O[C@@H]2COP(=O)(O)O[C@H]3[C@@H](O)[C@H](n4cnc5c(N)ncnc54)O[C@@H]3COP(=O)(O)O[C@H]2[C@H]1O [c-di-AMP] | We observed clear electron density for one c-di-AMP molecule bound to the OpuCA dimer |  |
| L. monocytogenes OpuCA (LmOpuCA) tandem CBS domains (residues 247–371) (domain or fragment, UniProt Q9KHT9 247-371, looked up) DVTQVAQIMNTNPVSITADKSLQAAITVMKEKRVDTLLVVDEGNVLKGFIDVEQIDLNRRTATSVMDIIEKNVFYVYEDTLLRDTVQRILKRGYKYIPVVDKDKRLVGIVTRASLVDIVYDSIWG |  | 2 |
